Patent publication US8304448B2, “Method for the treatment of metabolic disorder containing benzazole derivatives as an active ingredient” (Korea Research Institute of Bioscience and Biotechnology, priority 2006, dated 2012)

Columns and labels:
DGAT [1] = assay: Assay for inhibitory effect on DGAT in cell (intracellular triglyceride production from [14C]acetate in HepG2 cells); format: cell-based, human; conditions: for Production Yield of Triglyceride (%): final level 10 μM, DMSO control given as 100
Procedure: The effect of the benzazole derivatives of Chemical Formula 1 in accordance with the present invention on DGAT was examined with HepG2 cells, hepatic cells derived from the human liver, as follows.
HepG2 cells, purchased from ATCC, were cultured in Eagle's minimum essential medium (MEM), 2 mM L-glutamine, with Earle's balanced salt solution (BSS) adjusted to contain, 1.5 g/L sodium bicarbonate, 0.1 mM non-essential amino acids and 1 mM sodium pyruvate, supplemented with 10% fetal bovine serum (FBS) and 1% antibiotics (100 U/ml penicillin and 100 µg/ml streptomycin) at 37° C. in a 5% CO2 incubator.
Intracellular DGAT activity was represented by the amount of triglycerides produced in the cultured HepG2 cells while the compounds (4, 8, 10, 22, 24, 25, 26, 39 and 31) of Chemical Formula 1 were assayed for inhibitory activity against DGAT by measuring the change in intracellular triglyceride production after the addition thereof.
Cells were plated at a density of 1×10^6 cell/ml per well into 24-well plates and incubated for 24 hours. Then, the medium was exchanged with FBS-free MEM and pre-treated with samples for 1 hour. Thereafter, 0.2 mCi of [^14C]acetate (Amersham) was added as a substrate to the cells, followed by incubation for 1 hour. The production of triglyceride was catalyzed by DGAT so that DGAT activity was determined by the amount of the triglyceride product, which could be measured by radioactivity. For use, the samples were dissolved in dimethyl sulfoxide (DMSO). In a control, triglycerides were synthesized using DMSO without any sample, with the production yield thereof given as 100.
The amount of the glyceride products synthesized was determined as follows. After completion of synthesis, the cells were suspended in PBS (phosphate-buffer-saline) to remove the substrate [^14C]acetate, whether unabsorbed into the cells or remaining unreacted, and total lipids, including triglycerides, were extracted twice for 30 min with 0.5 ml of an extraction solvent mixture (hexane:isopropanol=3:2, v:v). 1 ml of the extract was concentrated with nitrogen gas.
The total lipid residue thus formed was dissolved in an organic solvent mixture (chloroform:methanol=2:1) and loaded dropwise onto a thin layer chromatography plate (TLC; silica gel 60F254, 0.5 mm, Merck) using a mixture of 80:20:1 hexane:diethylether:acetic acid (v:v:v) as a developing solvent. After the separation of triglycerides (Rf value: 0.4) on TLC, the plate was brought into contact with an autoradiographic film for three hours, followed by image analysis (BAS-1500, Fuji Photo Film Co. Ltd.) to determine the [^14C] radioactivity of the triglycerides. The cells left after the extraction were suspended in 0.3 ml of a 0.1 N sodium hydroxide solution to measure the cellular protein concentration thereof.
The empirical values were obtained by dividing triglyceride radioactivity by protein level, with correction for experimental errors between test groups.

DGAT [2] = assay: Assay for inhibitory activity against DGAT ([14C]triacylglycerol formation, rat microsomal protein); format: biochemical; conditions: rat microsomal protein as enzyme source
Source text: The derivatives of Chemical Formula 1 in accordance with the present invention are found to inhibit the enzymatic activity of DGAT at a dose-dependent manner (refer to Table 2 and FIG. 1) as measured in a test in which [^14C]triacylglycerol was quantitatively analyzed after enzymatic reaction between 1,2-diacylglycerol and [^14C]palmitoyl-CoA, with microsomal proteins from rats serving as an enzyme source (refer to Example 1).
After enzymatic reaction between two substrates 1,2-diacylglycerol (Sigma, D0138) and [^14C]palmitoyl-CoA (Amersham, CFA583) with the microsomal protein of rat serving as an enzyme source in accordance with Coleman et al, Methods Enzymol., 98-103, 1992, the resulting product [^14C] triacylglycerol was measured for radioactivity. In detail, to a reaction buffer (175 mM Tris-HCl, pH 8.0, 20 μl bovine serum albumin (10 mg/ml), 100 mM MgCl2, 30 μM [^14C] palmitoyl-CoA (0.02 μCi, Amersham) and 200 μM 1,2-dioleoyl glycerol) was added 10 μl of a solution of the samples in dimethylsulfoxide (DMSO) and then 100˜200 μl of an isolated microsomal protein, followed by reaction at 25° C. for 10 min. The reaction was terminated with 1.5 ml of a mixture of 80:20:2 2-propanol:heptane:water (v:v:v). Thereafter, the [^14C] triacylglycerol thus formed was separated. In this regard, 1 ml of heptane and 0.5 ml of distilled water were added to the reaction mixture, which was then shaken. 1 ml of the supernatant thus formed was mixed with 2 ml of an alkaline ethanol solution (ethanol:0.5 N sodium hydroxide:water=50:10:40, v:v:v), followed by shaking. After being taken, 0.65 ml of the supernatant thus formed was measured for radioactivity using an LSC (liquid scintillation counter). The inhibitory activity against DGAT was calculated according to the following Mathematical Formula 1. The inhibitory effects of the benzazole derivatives on DGAT are summarized in Table 2, below while % DGAT inhibition is plotted against doses of compound 22 and 31 in FIG. 1.
T: Cpm of a test group in which a sample was added to an enzymatic buffer,
C: Cpm of a control in which no samples were added to an enzymatic buffer,
B: Cpm of a control in which a sample was added in the absence of any enzyme source.

SPF ICR mice = assay: Acute toxicity, single oral dose of 2,000 mg/kg, mice; format: in vivo
Procedure: In addition, the compounds of the present invention were orally administered once at a dose of as high as 2,000 mg/kg into mice. In this regard, 7-week-old male SPF ICR mice (Dae Han Biolink Co. Ltd.) were acclimated to a new environment for one week and they, thus 8 weeks old, were divided into two groups of three. The test group was orally administered once with a dose of 2 g/kg of Compound 10 in a 0.5% CMC solution, while the control was administered with a 0.5% CMC (carboxymethyl cellulose) solution alone. They were monitored for death, clinical signs, change in body weight and the like for a couple of weeks. Autopsies were performed to examine the abnormality of organs.
Therefore, the compounds of the present invention exert no oral acute toxicity on mice even when administered once at a dose of up to 2,000 mg/kg.

[3] = system: ICR mice fed a high-fat diet; assay: In vivo assay for anti-obesity activity in mice fed a high-fat diet; design: species or system mouse; conditions: high-fat diet
Procedure: Also, the derivatives of Chemical Formula 1 were tested for resistance to obesity by iterative oral administration at a dose of 10 mg/kg into ICR male mice (refer to Example 3). […] When they were administered, the levels of total triglycerides, total cholesterols, and low density lipoprotein (LDL)-cholesterol in the blood recovered to almost normal levels, with a significant increase observed in the level of high density lipoprotein (HDL)-cholesterol in the blood (refer to Tables 6 and 7 and FIGS. 3 and 4).
In order to verify the anti-obesity activity of the benzaldehyde derivatives of Chemical Formula 1 in accordance with the present invention, Compounds 22 and 31 were administered repetitively into rodents as follows.
The experimental animals were 6 week old ICR mice which were purchased from Japan SLC, Inc. via Central Lab. Animal Inc. Korea. They were acclimated to a new environment for one week before use, and fed with a foodstuff commercially available from Deyts, U.S.A. They were bred in an animal lab set at a temperature of 23±3° C. and RH 50±10% under light of 150˜300 Lux for a period of 12 hours (6 a.m.˜6 p.m.) with ventilation 10-20 times/hour. All of the 12 mice used were male, and were organized into two groups of 6. The test group was orally administered once a day at 4 p.m. with 10 mg/kg of the compound (Chemical Formula 1) in the form of a solution in biological saline for 35 days while the control was administered with biological saline only. Xenical, a commercially available lipase inhibitor, was administered orally at a dose of 10 mg/kg once a day as a positive control drug.
The animals were measured for body weight every week and sacrificed on Day 35, after which blood from the heart was sampled. Abdominal fat, epididymal fat, retroperitoneal fat and the liver were excised and weighed. Blood samples were assayed for total triglyceride, total cholesterol, HDL-cholesterol and LDL-cholesterol using respective test kits, all commercially available from Asan Pharmaceutical Co. Ltd., Korea.
For evidence of anti-obesity activity, compounds 22 and 31 were orally administered at regular intervals at a dose of 10 mg/kg into ICR male mice for a predetermined period of time with the concurrent provision of conditional diets thereto. Anatomized abdomens of the animals are given in the photographs of FIG. 2.

[4] = Day 35, 10 mg/kg oral, Mean ± SD
[5] = blood, Day 35, 10 mg/kg oral, Mean ± SD

## O=C(NCCCN1CCOCC1)c1ccc2oc(COc3ccc(C45CC6CC(CC(C6)C4)C5)cc3)nc2c1 [Cpd. 25, 2-(4-adamantan-1-yl-phenoxymethyl)-benzoxazole-5-carboxylic acid (3-morpholin-4-yl-propyl)-amide]
DGAT [1]
  Production Yield of Triglyceride (%): 80.2 ± 7.8%
DGAT [2]
  DGAT (% inhibition in 25 μM): 54.08%

## COC(=O)c1ccc2[nH]c(COc3ccc(C(C)(C)C)cc3C(C)(C)C)nc2c1 [Cpd. 8, 2-(2,4-tert-butyl-phenoxymethyl)-1H-benzoimidazole-5-carboxylic acid methyl ester]
DGAT [1]
  Production Yield of Triglyceride (%): 88.5 ± 5.8%
DGAT [2]
  DGAT (% inhibition in 25 μM): 37.36%

## NS(=O)(=O)c1ccc2oc(COc3ccc(Cl)cc3Cl)nc2c1 [Cpd. 10, 2-(2,4-dichloro-phenoxymethyl)-benzoxazole-5-sulfonic acid amide]
DGAT [1]
  Production Yield of Triglyceride (%): 98.7 ± 6.3%
SPF ICR mice; single oral 2 g/kg in 0.5% CMC, No. of Dead/No of Tested
  Mortality: 0/3
SPF ICR mice; single oral 2 g/kg, Day 0, Mean ± SD
  Body Weight (g) Day 0: 35 ± 0.5 g
SPF ICR mice; single oral 2 g/kg, Day 1, Mean ± SD
  Body Weight (g) Day 1: 37 ± 0.5 g
SPF ICR mice; single oral 2 g/kg, Day 3, Mean ± SD
  Body Weight (g) Day 3: 37 ± 0.6 g
SPF ICR mice; single oral 2 g/kg, Day 7, Mean ± SD
  Body Weight (g) Day 7: 39 ± 1.6 g
SPF ICR mice; single oral 2 g/kg, Day 14, Mean ± SD
  Body Weight (g) Day 14: 42 ± 0.8 g
DGAT [2]
  DGAT (% inhibition in 25 μM): 17.43%

## CN(C)C(=O)c1ccc2nc(COc3ccc(C45CC6CC(CC(C6)C4)C5)cc3)[nH]c2c1 [Cpd. 30, 2-(4-adamantan-1-yl-phenoxymethyl)-3H-benzoimidazole-5-carboxylic acid dimethylamide]
DGAT [1]
  Production Yield of Triglyceride (%): 87.2 ± 7.4%
DGAT [2]
  DGAT (% inhibition in 5 μM): 8.0%
  DGAT (% inhibition in 25 μM): 41.8%

## O=C(NCc1ccco1)c1ccc2oc(COc3ccc(Cl)cc3Cl)nc2c1 [Cpd. 26, 2-(2,4-dichloro-phenoxymethyl)-benzoxazole-5-carboxylic acid (furan-2-ylmethyl)-amide]
DGAT [1]
  Production Yield of Triglyceride (%): 91.5 ± 5.2%
DGAT [2]
  DGAT (% inhibition in 25 μM): 19.75%

## COC(=O)c1ccc2[nH]c(COc3ccc(C45CC6CC(CC(C6)C4)C5)cc3)nc2c1 [Cpd. 4, 2-(4-adamantan-1-yl-phenoxymethyl)-1H-benzoimidazole-5-carboxylic acid methyl ester]
DGAT [1]
  Production Yield of Triglyceride (%): 72.2 ± 7.5%
DGAT [2]
  DGAT (% inhibition in 25 μM): 60.43%

## O=C(NCc1ccco1)c1ccc2[nH]c(COc3ccc(C45CC6CC(CC(C6)C4)C5)cc3)nc2c1 [Cpd. 31, 2-(4-adamantan-1-yl-phenoxymethyl)-1H-benzoimidazole-5-carboxylic acid (furan-2-ylmethyl)-amide]
DGAT [1]; 10 μM
  inhibition of the biosynthesis of triglycerides: 42.2%
DGAT [1]
  Production Yield of Triglyceride (%): 57.8 ± 5.3%
[3]; [4]
  (Tissue Weight/Body Weight) × 100 Abdominal Fat + Epididymal Fat: 3.16 ± 0.84
  (Tissue Weight/Body Weight) × 100 Liver: 4.48 ± 0.33
  (Tissue Weight/Body Weight) × 100 Retroperitoneal Fat: 0.94 ± 0.24
  (Tissue Weight/Body Weight) × 100 Total Fat: 4.1 ± 1.03
[3]; [5]
  HDL-Cholesterol: 21.22 ± 2.19 mg/dL
  LDL-Cholesterol: 43.62 ± 10.06 mg/dL
  Total Cholesterol: 73.19 ± 10.97 mg/dL
  Total Triglyceride: 41.79 ± 9.26 mg/dL
[3]; 10 mg/kg oral once a day for 35 days
  inhibition of body weight gain: 73%
[3]; 10 mg/kg oral once a day, Week 0
  Body Weight (g) (Mean ± SD) Week 0: 25.08 ± 0.99 g
[3]; 10 mg/kg oral once a day, Week 1
  Body Weight (g) (Mean ± SD) Week 1: 35.1 ± 1.99 g
[3]; 10 mg/kg oral once a day, Week 2
  Body Weight (g) (Mean ± SD) Week 2: 38.93 ± 2.33 g
[3]; 10 mg/kg oral once a day, Week 3
  Body Weight (g) (Mean ± SD) Week 3: 40.75 ± 1.75 g
[3]; 10 mg/kg oral once a day, Week 4
  Body Weight (g) (Mean ± SD) Week 4: 42.31 ± 1.57 g
[3]; 10 mg/kg oral once a day, Week 5
  Body Weight (g) (Mean ± SD) Week 5: 43.22 ± 1.41 g
DGAT [2]
  DGAT (% inhibition in 5 μM): 62.5%
  DGAT (% inhibition in 25 μM): 85.4%

## O=C(NCCN1CCCCC1)c1ccc2oc(COc3ccc(C45CC6CC(CC(C6)C4)C5)cc3)nc2c1 [Cpd. 24, 2-(4-adamantan-1-yl-phenoxymethyl)-benzoxazole-5-carboxylic acid (2-piperidin-1-yl-ethyl)-amide]
DGAT [1]
  Production Yield of Triglyceride (%): 78.5 ± 6.2%
DGAT [2]
  DGAT (% inhibition in 25 μM): 52.84%

## O=C(O)c1ccc2[nH]c(COc3ccc(Cl)cc3Cl)nc2c1 [compound 16, 2-(2,4-dichloro-phenoxymethyl)-1H-benzoimidazole-5-carboxylic acid]
DGAT [2]
  DGAT (% inhibition in 25 μM): −7.37%
